This is an account of results in US4356186A, “Acetic acid derivatives and composition containing the same” (priority 1980, dated 1982).

The subject of one data set is male Wistar rats. The data set is described as follows: Acute lethal toxicity. The note with it: from LD50, single oral administration. In kind it is in vivo. As for the experimental part:
(§1) The mortality was observed on the 7th day after single oral administration of test compounds in male Wistar rats, and the LD50 was calculated according to the method of Litchfield and Wilcoxon.

The next data set can be described thus: Acute lethal toxicity. The conditions noted are these: rat, in vivo; single oral administration, mortality on the 7th day, Litchfield and Wilcoxon. In kind it is in vivo. As for the experimental part:
as §1

In data set [1] the test system is carrageenin-induced hind paw edema. The data set can be described thus: Anti-inflammatory activity (carrageenin-induced hind paw edema in rats). Format: in vivo, Male Wistar rats. The note with it: for inhibition in vivo at 2 mg/kg / inhibition in vivo at 5 mg/kg / inhibition in vivo at 1 mg/kg / inhibition in vivo at 4 mg/kg / inhibition in vivo at 8 mg/kg / inhibition in vivo at 20 mg/kg / inhibition in vivo at 40 mg/kg / inhibition in vivo at 80 mg/kg / inhibition in vivo at 160 mg/kg / inhibition in vivo at 0.2 mg/kg / inhibition in vivo at 0.4 mg/kg / inhibition in vivo at 0.8 mg/kg / inhibition in vivo at 1.6 mg/kg / inhibition in vivo at 3.2 mg/kg: Rattus norvegicus, po; for inhibition in vivo at 1 mg/kg: 1 mg/kg p.o.; for inhibition in vivo at 4 mg/kg: 4 mg/kg p.o.; for inhibition in vivo at 8 mg/kg: 8 mg/kg p.o.; for inhibition in vivo at 0.2 mg/kg: 0.2 mg/kg p.o.; for inhibition in vivo at 0.4 mg/kg: 0.4 mg/kg p.o.; for inhibition in vivo at 0.8 mg/kg: 0.8 mg/kg p.o.; for inhibition in vivo at 1.6 mg/kg: 1.6 mg/kg p.o.; for inhibition in vivo at 3.2 mg/kg: 3.2 mg/kg p.o. The method, then:
Anti-inflammatory activity (carrageenin-induced hind paw edema in rats)
The test was carried out in a similar manner as disclosed in Proc. Soc. Exptl.
Male Wistar rats, weighing 100-300 g, were used. A 1% aqueous carrageenin solution (0.1 ml) was administered subcutaneously into the hind foot pad of rats. Two and three hours after the carrageenin injection, the paw volume was measured and the swelling rate was calculated based on the paw volume before the carrageenin injection. The inhibitory rate was determined as compared with the average swelling rate of the control group to which only vehicle was administered. The test compounds were administered orally one hour before the carrageenin injection.

Another data set has as its system stomach ulcer. The data set can be described thus: Gastrointestinal ulcerogenicity. The note with it: for Number of rats having a score of stomach ulcer of 2 or more/total number of rats used / Average score of stomach ulcer: after 6 hours; for Average score of stomach ulcer: score 1 to 4. Format: in vivo, Male Wistar rats. Also noted: key to Average score of stomach ulcer: ulcer score 1 to 4, 4 = most severe ulcer. The method, then:
Gastrointestinal ulcerogenicity
The test was carried out in a similar manner as disclosed in Arzneim. Forsch., 19, 36 (1969).
Male Wistar rats, weighing 130-180 g, were used. After the rats were fasted for 24 hours, the test compound was orally administered one time. After 6 hours, the rats were killed and the stomach was removed. […] The degree of stomach ulcer was scored from 1 to 4, wherein 4 is the most severe ulcer. In Table 2, there are shown the average score of stomach ulcer in each dose and also the ratio of the number of rats having a score of stomach ulcer of 2 or more to total number of rats used.

Where [2] appears, read: 2 h, 2 mg/kg p.o., two hours, read-out: Inhibitory rate, two hours after the carrageenin injection.
[3] abbreviates: 2 h, 5 mg/kg p.o., two hours, read-out: Inhibitory rate, two hours after the carrageenin injection.
[4] abbreviates: 3 h, 2 mg/kg p.o., three hours, read-out: Inhibitory rate, three hours after the carrageenin injection.
The mark [5] stands for this setting: 3 h, 5 mg/kg p.o., three hours, read-out: Inhibitory rate, three hours after the carrageenin injection.
The mark [6] stands for this setting: 2 h, two hours, read-out: Inhibitory rate, two hours after the carrageenin injection.
Setting [7] is: 3 h, three hours, read-out: Inhibitory rate, three hours after the carrageenin injection.
Where [8] appears, read: 2 h, read-out: Inhibitory rate, two hours after the carrageenin injection.
Setting [9] is: 3 h, read-out: Inhibitory rate, three hours after the carrageenin injection.

SMILES strings stand for the structures. Like-named read-outs stand apart in the source and are kept apart here.

Consider `CC(C(=O)OCCc1ccccc1)c1ccc2c(c1)SCC1CCCCC1C2=O` (centres unmarked) [L, Phenethyl 2-(6,6a,7,8,9,10,10a,11-octahydro-11-oxodibenzo[b,e]thiepin-3-yl)propionate], for which the “toxicity relative to that of indomethacin” value in the data set with male Wistar rats is “about 1/12”. Besides, in the data set “Acute lethal toxicity”, the LD50 at 168 h came out at 230 mg/kg. The inhibition in vivo at 2 mg/kg is 20.7% in data set [1] (setting [2]) and 24.8% in data set [1] (setting [4]). The inhibition in vivo at 5 mg/kg was 44.8% in data set [1] (setting [3]) and 39.1% in data set [1] (setting [5]). Moreover, the “Number of rats having a score of stomach ulcer of 2 or more/total number of rats used” value (“Number … of 2 or more/total number of rats used” for short) in the data set on stomach ulcer (32 mg/kg p.o.) is on record as 1/9; in the data set with stomach ulcer (64 mg/kg p.o.) it was 0/6. Also, the figures for the “Average score of stomach ulcer” value in the data set on stomach ulcer (32 mg/kg p.o.) and with stomach ulcer (64 mg/kg p.o.) were 0.56 and 0.67, respectively. Moreover, the “gastrointestinal ulcerogenicity compared with the known aspirin” value in the data set on stomach ulcer (in words, from Table 2) was “far less gastrointestinal ulcerogenicity than the known aspirin”.

Regarding `CC(C(N)=O)c1ccc2c(c1)SCC1CCCCC1C2=O` (single isomer, unassigned) [R, 2-(6,6a,7,8,9,10,10a,11-Octahydro-11-oxodibenzo[b,e]thiepin-3-yl)propionamide-A], the inhibition in vivo at 1 mg/kg in data set [1] (setting [6]) turned out to be 29.3%; in data set [1] (setting [7]), 24.7%. In addition, the inhibition in vivo at 2 mg/kg was determined as 30.7% in data set [1] (setting [2]) and 27.6% in data set [1] (setting [4]). Moreover, the inhibition in vivo at 4 mg/kg in data set [1] (setting [6]) is 38.4%; in data set [1] (setting [7]), 37.7%. In addition, the inhibition in vivo at 8 mg/kg in data set [1] (setting [6]) came to 43.6%; in data set [1] (setting [7]), 36%. Further, the “Number … of 2 or more/total number of rats used” value is 0/3 with stomach ulcer (8 mg/kg p.o.), 4/6 with stomach ulcer (16 mg/kg p.o.) and 3/3 in the data set on stomach ulcer (32 mg/kg p.o.). For the same compound, the figures for the “Average score of stomach ulcer” value in the data set on stomach ulcer (8 mg/kg p.o.), in the data set with stomach ulcer (16 mg/kg p.o.) and in the data set with stomach ulcer (32 mg/kg p.o.) were 0.00, 1.67 and 2.33, respectively.

With `CC(C(=O)OCc1ccccn1)c1ccc2c(c1)SCC1CCCCC1C2=O` (centres unmarked) [O, 2-Pyridylmethyl 2-(6,6a,7,8,9,10,10a,11-octahydro-11-oxodibenzo[b,e]thiepin-3-yl)propionate], the inhibition in vivo at 2 mg/kg in data set [1] (setting [2]) is 31.4%; in data set [1] (setting [4]), 28.8%. Also, the inhibition in vivo at 5 mg/kg in data set [1] (setting [3]) was 30.8%; in data set [1] (setting [5]) it was 30.6%. The “Number … of 2 or more/total number of rats used” value in the data set with stomach ulcer (32 mg/kg p.o.) is given as 2/6; in the data set with stomach ulcer (64 mg/kg p.o.), 4/6. The entries for the “Average score of stomach ulcer” value in the data set with stomach ulcer (32 mg/kg p.o.) and in the data set with stomach ulcer (64 mg/kg p.o.) were 0.67 and 1.83, respectively.

Regarding `COc1ccc2c(c1)c(CC(=O)O)c(C)n2C(=O)c1ccc(Cl)cc1` [Compound 1, Indomethacin, reference compound], the values for the inhibition in vivo at 2 mg/kg in data set [1] (setting [8]) and in data set [1] (setting [9]) were 20.5% and 19.3%, respectively. The inhibition in vivo at 5 mg/kg in data set [1] (setting [8]) was determined as 42.4%; in data set [1] (setting [9]), 36.3%. Moreover, the figures for the “Average score of stomach ulcer” value with stomach ulcer (4 mg/kg p.o.), with stomach ulcer (8 mg/kg p.o.) and in the data set on stomach ulcer (16 mg/kg p.o.) were 0.50, 1.78 and 2.56, respectively.

As for `CC(C(=O)O)c1ccc2c(c1)SCC1CCCCC1C2=O` (centres unmarked) [H, Calcium 2-(6,6a,7,8,9,10,10a,11-octahydro-11-oxodibenzo[b,e]thiepin-3-yl)propionate], in data set [1] (setting [6]), the inhibition in vivo at 1 mg/kg stood at 31.4% and the inhibition in vivo at 4 mg/kg is 39.5%. For the same compound, in data set [1] (setting [7]), the inhibition in vivo at 1 mg/kg came out at 26.2% and the inhibition in vivo at 4 mg/kg was 35.7%. For the same compound, in the data set with stomach ulcer (16 mg/kg p.o.), the “Number … of 2 or more/total number of rats used” value is 1/3 and the “Average score of stomach ulcer” value is reported as 1.00. Moreover, in the data set on stomach ulcer (32 mg/kg p.o.), the “Number … of 2 or more/total number of rats used” value is 2/3 and the “Average score of stomach ulcer” value is listed as 1.33.

In the case of `CC(=O)Oc1ccccc1C(=O)O` [Compound 2, Aspirin, reference compound], the inhibition in vivo at 20 mg/kg was 14.1% in data set [1] (setting [8]) and 9% in data set [1] (setting [9]). For the same compound, the inhibition in vivo at 40 mg/kg in data set [1] (setting [8]) came out at 22.9%; in data set [1] (setting [9]) it was 21.2%. Further, the inhibition in vivo at 80 mg/kg in data set [1] (setting [8]) was 30.8%; in data set [1] (setting [9]), 25.9%. Besides, the inhibition in vivo at 160 mg/kg in data set [1] (setting [8]) came out at 35.1%; in data set [1] (setting [9]) it was 30.9%. The “Number … of 2 or more/total number of rats used” value is given as 0/6 in the data set on stomach ulcer (20 mg/kg p.o.); 3/6 in the data set with stomach ulcer (40 mg/kg p.o.); 5/6 in the data set on stomach ulcer (60 mg/kg p.o.); 5/6 in the data set on stomach ulcer (80 mg/kg p.o.); 6/6 in the data set on stomach ulcer (160 mg/kg p.o.). Moreover, the “Average score of stomach ulcer” value was 0.83 with stomach ulcer (20 mg/kg p.o.); 1.33 in the data set on stomach ulcer (40 mg/kg p.o.); 2.33 with stomach ulcer (60 mg/kg p.o.); 3.33 in the data set on stomach ulcer (80 mg/kg p.o.); 4.00 with stomach ulcer (160 mg/kg p.o.).

Regarding `CC(C(=O)O)c1ccc2c(c1)SCC1CCCCC1C2=O` (centres unmarked) [F, 2-(6,6a,7,8,9,10,10a,11-Octahydro-11-oxodibenzo[b,e]thiepin-3-yl)propionicacid-A], in data set [1] (setting [6]), the inhibition in vivo at 0.2 mg/kg turned out to be 8.6%, the inhibition in vivo at 0.4 mg/kg is 14.9%, the inhibition in vivo at 0.8 mg/kg is 20.5% and the inhibition in vivo at 1.6 mg/kg amounted to 28.4%. Further, in data set [1] (setting [6]), the inhibition in vivo at 3.2 mg/kg was determined as 36.4%. In addition, in data set [1] (setting [7]), the inhibition in vivo at 0.2 mg/kg came out at 6.7%, the inhibition in vivo at 0.4 mg/kg amounted to 11.6%, the inhibition in vivo at 0.8 mg/kg amounted to 12.6% and the inhibition in vivo at 1.6 mg/kg worked out at 20.3%. Moreover, in data set [1] (setting [7]), the inhibition in vivo at 3.2 mg/kg came to 30.6%. The “anti-inflammatory activity compared with the known indomethacin” value in data set [1] (in words, from Table 1) is “comparable or superior to that of the known indomethacin”. In the data set with stomach ulcer (16 mg/kg p.o.), the “Number … of 2 or more/total number of rats used” value was 2/6 and the “Average score of stomach ulcer” value came to 1.00. For the same compound, in the data set on stomach ulcer (32 mg/kg p.o.), the “Number … of 2 or more/total number of rats used” value was 2/6 and the “Average score of stomach ulcer” value turned out to be 1.00. In the data set on stomach ulcer (64 mg/kg p.o.), the “Number … of 2 or more/total number of rats used” value is listed as 6/9 and the “Average score of stomach ulcer” value turned out to be 1.67.

Broadly, the LD50 is the dose at which mortality reaches 50%.
